{
  "source": "patent US20210205638A1",
  "about": "“PARATHYROID HORMONE AND REGENERATION OF DEGENERATIVE DISCS DISEASE” (THE JOHNS HOPKINS UNIVERSITY, priority 2017, published 2021)",
  "key": {"[1]": {"system": "NP tissues", "experiment": "Western blot of pSmad2 in NP tissue of aged mice", "format": "in vivo, mouse", "conditions": "NP tissues of 18-month-old mice", "procedure": "Western blot analyses were conducted on the protein lysates from in vitro cultured NP cells or NP tissues from mice at specific time points after PTH (1-34) treatment and human at different ages with lumbar disc degeneration. The protein extract was centrifuged, the concentration of supernatant evaluated by DC protein assay (Bio-Rad Laboratories), and then separated by SDS-PAGE and blotted on a polyvinylidene fluoride membrane (Bio-Rad Laboratories). Following incubation in specific antibodies, we detected proteins using an enhanced chemiluminescence kit (Amersham Biosciences). We used specific antibodies recognizing rabbit CTGF (CCN2) (Abcam, 1:1000), Aggrecan (ACAN) (Abcan, 1:1000), p-Smad2 (Cell Signaling Technology Inc., 1:1000), Smad2 (Cell Signaling Technology Inc., 1:1000), GAPDH (Cell Signaling Technology Inc., 1:1000), CREB (Abcam, 1:2500), pCREB (Abcam, 1:2500), PTH1R PRB-635P (Covance, 1:100), PTH1R PRB-640P (Covance, 1:500) and goat integrin β6 (Santa Cruz, 1:500) to examine the protein concentrations in the lysates. Co-immunoprecipitation analyses were conducted on the nuclear and cytoplasmic protein extraction using NE-PER Nuclear and Cytoplasmic Extraction Kit (Pierce Thermo Scientific, 78833) from in vitro cultured NP cells treated with PTH (1-34) or vehicle."}, "[2]": {"system": "NP cells", "experiment": "iPTH in IFT88-/- and wild-type mice: immunostaining of pSmad2/3, CCN2, ACAN", "format": "in vivo, mouse", "procedure": "(§1) The 11 month-old PTH1R^+/+ and PTH1R^−/− male mice were randomized into four groups: PTH1R^+/++PTH (1-34), PTH1R^+/++Vehicle, PTH1R^−/−+PTH (1-34) and PTH1R^−/−+Vehicle groups (n=8 per group). The 11 month-olds IFT88^+/+ and IFT88^−/− male mice were randomized into four groups: IFT88^+/++PTH (1-34), IFT88^+/++Vehicle, IFT88^−/−+PTH (1-34) and IFT88^−/−+Vehicle groups (n=8 per group). Mice were subcutaneously injected with either PTH (1-34) or vehicle (1 mM acetic acid in phosphate buffered saline (PBS) with equivalent volume of PTH) daily, 5 days per week, and all mice were sacrificed 4 weeks after treatment with PTH (1-34)/vehicle.\n(§2) For immunocytochemical staining, we incubated GFP labeled NP cells co-stained with primary antibody to rabbit PTH1R PRB-635P (Covance, 1:100) for 1 h and subsequently stained with secondary antibodies conjugated with fluorescence at room temperature. At the time of euthanasia, we dissected and fixed the lumbar vertebral spine in 10% buffered formalin for 48 h, decalcified them in 10% EDTA (pH 7.4) for 14-21 days and embedded them in paraffin or optimal cutting temperature (OCT) compound (Sakura Finetek). Fourmicrometer-thick coronal-oriented sections of the L1-L6 spine were processed for safranin O and fast green staining. Sections for immunostaining was performed using a standard protocol and incubated with primary antibodies to rabbit ACAN (Abcam, 1:100), CCN2 (Abcam, 1:100), integrin β8 (Abcam, 1:200), pCREB (Abcam, 1:100) and PTH1R PRB-635P (Covance, 1:100), mouse pSmad2/3 (Santa Cruz, 1:100), integrin αvβ6 (Millipore, 1:100), integrin αvβ3 (Bioss, 1:100,), integrin αvβ5 (Bioss, 1:100) at 4° C. overnight. For immunohistochemical staining, a horse radish peroxidase-streptavidin detection system (Dako) was subsequently used to detect the immunoactivity, followed by counterstaining with hematoxylin (Sigma-Aldrich). For immunofluorescent assay, the slides were incubated with secondary antibodies conjugated with fluorescence at room temperature for 1 h while avoiding light. We used isotype-matched controls, such as polyclonal rabbit IgG (R&D Systems, AB-105-C) under the same concentrations and conditions as negative controls. We micro photographed sections to perform histomorphometric measurements on the entire area of the L3-L4 of the spine (Olympus DP71).\n(§3) Quantitative histomorphometric analysis was conducted in a blinded fashion with Image-Pro Plus Software version 6.0 (Media Cybernetics Inc). IVD histological score were obtained as previously described67. Five randomly selected sections per mice in each group at L3-L4 level were chosen for quantitative histomorphometric analysis. The percentage of pSmad2/3 and pCREB positive cells was obtained by counting the number of positive staining cells to the number of total cells in the NP region. The percentage area of CCN2 and ACAN positive staining was calculated by measuring the positive area to the whole area of the L3-L4 in each group."}, "[3]": {"system": "NP cells", "experiment": "iPTH in PTH1R KO and wild-type mice: qRT-PCR of CCN2 and ACAN", "format": "in vivo, mouse", "procedure": "as §1\nAfter protein extraction, specimen from the same group of mice were prepared for RNA extraction using TRIzol reagent (Invitogen) according to the manufacturer's instruction. The purity of RNA was tested by measuring the absorbance at 260 and 280 nm. For qRT-PCR, two micrograms of RNA was reverse transcribed into cDNA using the SuperScript firststrand synthesis system (Invitrogen) and analyzed with SYBR Green-Master Mix (Qiagen) in the thermal cycler with two sets of primers specific for each target gene. Relative expression was calculated for each gene by the 2^−ΔΔCT method, with GAPDH for normalization."}, "[4]": {"system": "18-month-old mice", "experiment": "iPTH in aged mice: safranin O staining and immunostaining of IVD sections", "format": "in vivo, mouse", "procedure": "as §2, §3"}, "[5]": {"system": "NP cells", "experiment": "Western blot of pCREB in NP cells of IFT88-/- or IFT88+/+ mice", "format": "cell-based, mouse", "procedure": "Green fluorescent protein (GFP) labeled NP cells of notochordal origin were isolated from 15-day old Noto^Cre/+::ROSA26-lacZ^flox/flox male mice as previously described. The NP cells from 15-day old PTH1R^+/+ and PTH1R^−/−, IFT88^+/+ and IFT88^−/− male mice. Briefly, the cells were isolated from the NP region of IVDs in the spinal column from mid thoracic to lower lumbar region and digested initially with TrypLE Express (Gibco) for 30 minutes on shaker, followed by 0.25 mg/ml Collagense-P (Roche) for another […] at 37° C. The digested cells were washed twice with PBS, and cultured in α-MEM (Gibco) supplemented with 10% fetal calf serum (Atlanta Biologicals), and 1% penicillin—streptomycin (Mediatech) to 80-90% confluence at 37° C., 5% CO2 and 5% O2.\nWestern blot analyses were conducted on the protein lysates from in vitro cultured NP cells or NP tissues from mice at specific time points after PTH (1-34) treatment and human at different ages with lumbar disc degeneration. The protein extract was centrifuged, the concentration of supernatant evaluated by DC protein assay (Bio-Rad Laboratories), and then separated by SDS-PAGE and blotted on a polyvinylidene fluoride membrane (Bio-Rad Laboratories). Following incubation in specific antibodies, we detected proteins using an enhanced chemiluminescence kit (Amersham Biosciences). […]"}, "[6]": {"conditions": "wild-type mice relative to vehicle mice"}},
  "data": [
    {"compound": "CC[C@H](C)[C@H](NC(=O)[C@H](CCC(=O)O)NC(=O)[C@H](CO)NC(=O)[C@@H](NC(=O)[C@@H](N)CO)C(C)C)C(=O)N[C@@H](CCC(N)=O)C(=O)N[C@@H](CC(C)C)C(=O)N[C@@H](CCSC)C(=O)N[C@@H](Cc1cnc[nH]1)C(=O)N[C@@H](CC(N)=O)C(=O)N[C@@H](CC(C)C)C(=O)NCC(=O)N[C@@H](CCCCN)C(=O)N[C@@H](Cc1cnc[nH]1)C(=O)N[C@@H](CC(C)C)C(=O)N[C@@H](CC(N)=O)C(=O)N[C@@H](CO)C(=O)N[C@@H](CCSC)C(=O)N[C@@H](CCC(=O)O)C(=O)N[C@@H](CCCN=C(N)N)C(=O)N[C@H](C(=O)N[C@@H](CCC(=O)O)C(=O)N[C@@H](Cc1c[nH]c2ccccc12)C(=O)N[C@@H](CC(C)C)C(=O)N[C@@H](CCCN=C(N)N)C(=O)N[C@@H](CCCCN)C(=O)N[C@@H](CCCCN)C(=O)N[C@@H](CC(C)C)C(=O)N[C@@H](CCC(N)=O)C(=O)N[C@@H](CC(=O)O)C(=O)N[C@H](C(=O)N[C@@H](Cc1cnc[nH]1)C(=O)N[C@@H](CC(N)=O)C(=O)N[C@@H](Cc1ccccc1)C(=O)O)C(C)C)C(C)C", "note": "[PTH (1-34), teriparatide]", "values": [
      {"measurement": "pSmad2 (Western blot)", "setting": "[1]", "result": "increased"},
      {"measurement": "PTH effect on level of CCN2", "setting": "[2]; IFT88-/- mice", "result": "blunted"},
      {"measurement": "PTH effect on level of aggrecan", "setting": "[2]; IFT88-/- mice", "result": "blunted"},
      {"measurement": "PTH effect on number of pSmad2/3+ NP cells", "setting": "[2]; IFT88-/- mice", "result": "blunted"},
      {"measurement": "level of CCN2", "setting": "[2]; [6]", "result": "significantly stimulated"},
      {"measurement": "level of aggrecan", "setting": "[2]; [6]", "result": "significantly stimulated"},
      {"measurement": "number of pSmad2/3+ NP cells", "setting": "[2]; [6]", "result": "significantly stimulated"},
      {"measurement": "mRNA expression of ACAN", "setting": "[3]; NP cells of wild-type mice", "result": "significantly increased"},
      {"measurement": "mRNA expression of CCN2", "setting": "[3]; NP cells of wild-type mice", "result": "significantly increased"},
      {"measurement": "PTH increase of mRNA expression of ACAN", "setting": "[3]; PTH1R KO mice", "result": "blunted"},
      {"measurement": "PTH increase of mRNA expression of CCN2", "setting": "[3]; PTH1R KO mice", "result": "blunted"},
      {"measurement": "IVD score", "setting": "[4]", "result": "decrease"},
      {"measurement": "level of CCN2+", "setting": "[4]; immunostaining", "result": "increased"},
      {"measurement": "level of aggrecan", "setting": "[4]; immunostaining", "result": "increased"},
      {"measurement": "number of pSmad2/3+ NP cells", "setting": "[4]; immunostaining", "result": "increased"},
      {"measurement": "number of NP cells", "setting": "[4]; safranin O", "result": "significantly increased"},
      {"measurement": "levels of CREB phosphorylation by PTH", "setting": "[5]; IFT88-/- NP cells (disruption of primary cilia)", "result": "significantly reduced"},
      {"measurement": "phosphorylation of CREB (Western blot)", "setting": "[5]; NP cells of wild-type mice", "result": "significantly stimulated"}
    ]}
  ]
}
